Values quoted from earlier work as cited in patent US20100166698A1, “NEW COMPOSITIONS AND METHODS FOR THE TREATMENT OF INFLAMMATION” (University of Virginia Patent Foundation, priority 2005, published 2010).

Columns and labels:
[1] = system: TNF-a-stimulated PMN; conditions: adenosine 10 μM
[2] = system: TNF-α-stimulated PMN adhering to matrix proteins; conditions: DeLa Harpe, J. Immunol. 143, 596 (1989)

SMILES: Nc1ncnc2c1ncn2[C@@H]1O[C@H](CO)[C@@H](O)[C@H]1O [adenosine]
- effect on TNF-a-stimulated PMN adherence to matrix proteins [1]: failed to see much of an effect
- oxidative burst of TNF-α-stimulated PMN adhering to matrix proteins [2]: dramatically decreases
